According to PubChem BioAssay (NCI):
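Grown in 96-well plates, cells were treated for 48 hours with each compound at five concentrations. Insufficient inhibition: endpoint recorded as highest concentration tested. Abbreviation: GI50, concentration required for 50% inhibition of growth. TGI: total growth inhibition.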

Experiments:
Test in all cases: NCI tumour cell line growth inhibition, 48 h
786-0 renal = test system: 786-0 renal
A498 renal = test system: A498 renal
A549 NSCLC = test system: A549 NSCLC
ACHN renal = test system: ACHN renal
BT-549 breast = test system: BT-549 breast
CAKI-1 renal = test system: CAKI-1 renal
CCRF-CEM leukemia = test system: CCRF-CEM leukemia
COLO 205 colon = test system: COLO 205 colon
DU-145 prostate = test system: DU-145 prostate
EKVX NSCLC = test system: EKVX NSCLC
HCC-2998 colon = test system: HCC-2998 colon
HCT-116 colon = test system: HCT-116 colon
HCT-15 colon = test system: HCT-15 colon
HL-60(TB) leukemia = test system: HL-60(TB) leukemia
HOP-62 NSCLC = test system: HOP-62 NSCLC
HOP-92 NSCLC = test system: HOP-92 NSCLC
HS 578T breast = test system: HS 578T breast
HT29 colon = test system: HT29 colon
IGROV1 ovarian = test system: IGROV1 ovarian
K-562 leukemia = test system: K-562 leukemia
KM12 colon = test system: KM12 colon
LOX IMVI melanoma = test system: LOX IMVI melanoma
M14 melanoma = test system: M14 melanoma
MALME-3M melanoma = test system: MALME-3M melanoma
MCF7 breast = test system: MCF7 breast
MDA-MB-231 breast = test system: MDA-MB-231 breast
MDA-MB-435 = test system: MDA-MB-435
MDA-MB-468 breast = test system: MDA-MB-468 breast
MOLT-4 leukemia = test system: MOLT-4 leukemia
NCI-H226 lung = test system: NCI-H226 lung
NCI-H23 lung = test system: NCI-H23 lung
NCI-H460 lung = test system: NCI-H460 lung
NCI-H522 lung = test system: NCI-H522 lung
NCI/ADR-RES ovarian = test system: NCI/ADR-RES ovarian
OVCAR-3 ovarian = test system: OVCAR-3 ovarian
OVCAR-4 ovarian = test system: OVCAR-4 ovarian
OVCAR-5 ovarian = test system: OVCAR-5 ovarian
OVCAR-8 ovarian = test system: OVCAR-8 ovarian
PC-3 prostate = test system: PC-3 prostate
RPMI-8226 leukemia = test system: RPMI-8226 leukemia
RXF 393 renal = test system: RXF 393 renal
SF-268 CNS = test system: SF-268 CNS
SF-295 CNS = test system: SF-295 CNS
SF-539 CNS = test system: SF-539 CNS
SK-MEL-2 melanoma = test system: SK-MEL-2 melanoma
SK-MEL-28 melanoma = test system: SK-MEL-28 melanoma
SK-MEL-5 melanoma = test system: SK-MEL-5 melanoma
SK-OV-3 ovarian = test system: SK-OV-3 ovarian
SN12C renal = test system: SN12C renal
SNB-19 CNS = test system: SNB-19 CNS
SNB-75 CNS = test system: SNB-75 CNS
SW-620 colon = test system: SW-620 colon
T-47D breast = test system: T-47D breast
TK-10 renal = test system: TK-10 renal
U251 CNS = test system: U251 CNS
UACC-257 melanoma = test system: UACC-257 melanoma
UACC-62 melanoma = test system: UACC-62 melanoma
UO-31 renal = test system: UO-31 renal

CN(C)c1nc(NCCNS(=O)(=O)c2ccc(C(=O)/C=C/c3ccc(C(F)(F)F)cc3)cc2)nc(Nc2ccc(F)cc2)n1
GI50 (786-0 renal): 10.6 µM | TGI (786-0 renal): 22.7 µM | GI50 (A498 renal): 13 µM | TGI (A498 renal): 26.2 µM | GI50 (A549 NSCLC): 10 µM | TGI (A549 NSCLC): 25.4 µM | GI50 (ACHN renal): 5.08 µM | TGI (ACHN renal): 17.4 µM | GI50 (BT-549 breast): 12.7 µM | TGI (BT-549 breast): 25.6 µM | GI50 (CAKI-1 renal): 6.46 µM | TGI (CAKI-1 renal): 19.7 µM | GI50 (CCRF-CEM leukemia): 3.79 µM | TGI (CCRF-CEM leukemia): > 100 µM | GI50 (COLO 205 colon): 11.2 µM | TGI (COLO 205 colon): 24.8 µM | GI50 (DU-145 prostate): 11.2 µM | TGI (DU-145 prostate): 24 µM | GI50 (EKVX NSCLC): 4.2 µM | TGI (EKVX NSCLC): 15.7 µM | GI50 (HCC-2998 colon): 1.77 µM | TGI (HCC-2998 colon): 3.61 µM | GI50 (HCT-116 colon): 1.68 µM | TGI (HCT-116 colon): 3.13 µM | GI50 (HCT-15 colon): 3.22 µM | TGI (HCT-15 colon): 11.9 µM | GI50 (HL-60(TB) leukemia): 3.82 µM | TGI (HL-60(TB) leukemia): 30 µM | GI50 (HOP-62 NSCLC): 13.6 µM | TGI (HOP-62 NSCLC): 27.7 µM | GI50 (HOP-92 NSCLC): 6.15 µM | TGI (HOP-92 NSCLC): 20.7 µM | GI50 (HS 578T breast): 12.7 µM | TGI (HS 578T breast): 49.5 µM | GI50 (HT29 colon): 1.91 µM | TGI (HT29 colon): 3.95 µM | GI50 (IGROV1 ovarian): 12.3 µM | TGI (IGROV1 ovarian): 24.9 µM | GI50 (K-562 leukemia): 2.98 µM | TGI (K-562 leukemia): 30.4 µM | GI50 (KM12 colon): 2.38 µM | TGI (KM12 colon): 6 µM | GI50 (LOX IMVI melanoma): 1.86 µM | TGI (LOX IMVI melanoma): 3.84 µM | GI50 (M14 melanoma): 3.39 µM | TGI (M14 melanoma): 12.9 µM | GI50 (MALME-3M melanoma): 14.2 µM | TGI (MALME-3M melanoma): 27.5 µM | GI50 (MCF7 breast): 1.7 µM | TGI (MCF7 breast): 3.56 µM | GI50 (MDA-MB-231 breast): 8.38 µM | TGI (MDA-MB-231 breast): 20.8 µM | GI50 (MDA-MB-435): 2.86 µM | TGI (MDA-MB-435): 8.49 µM | GI50 (MDA-MB-468 breast): 4.53 µM | TGI (MDA-MB-468 breast): 17 µM | GI50 (MOLT-4 leukemia): 2.9 µM | TGI (MOLT-4 leukemia): 9.61 µM | GI50 (NCI-H226 lung): 7.82 µM | TGI (NCI-H226 lung): 24.7 µM | GI50 (NCI-H23 lung): 11.2 µM | TGI (NCI-H23 lung): 24.2 µM | GI50 (NCI-H460 lung): 4.09 µM | TGI (NCI-H460 lung): 14.9 µM | GI50 (NCI-H522 lung): 11.2 µM | TGI (NCI-H522 lung): 24.7 µM | GI50 (NCI/ADR-RES ovarian): 10.7 µM | TGI (NCI/ADR-RES ovarian): 23.7 µM | GI50 (OVCAR-3 ovarian): 2.04 µM | TGI (OVCAR-3 ovarian): 5.61 µM | GI50 (OVCAR-4 ovarian): 8.78 µM | TGI (OVCAR-4 ovarian): 23.1 µM | GI50 (OVCAR-5 ovarian): 12 µM | TGI (OVCAR-5 ovarian): 24.4 µM | GI50 (OVCAR-8 ovarian): 12.3 µM | TGI (OVCAR-8 ovarian): 30.6 µM | GI50 (PC-3 prostate): 4.15 µM | TGI (PC-3 prostate): 18.2 µM | GI50 (RPMI-8226 leukemia): 3 µM | TGI (RPMI-8226 leukemia): > 100 µM | GI50 (RXF 393 renal): 3.7 µM | TGI (RXF 393 renal): 16 µM | GI50 (SF-268 CNS): 7.71 µM | TGI (SF-268 CNS): 22.5 µM | GI50 (SF-295 CNS): 11.3 µM | TGI (SF-295 CNS): 23.5 µM | GI50 (SF-539 CNS): 10.7 µM | TGI (SF-539 CNS): 22.5 µM | GI50 (SK-MEL-2 melanoma): 9.45 µM | TGI (SK-MEL-2 melanoma): 22.3 µM | GI50 (SK-MEL-28 melanoma): 10.4 µM | TGI (SK-MEL-28 melanoma): 22.2 µM | GI50 (SK-MEL-5 melanoma): 10.4 µM | TGI (SK-MEL-5 melanoma): 22.2 µM | GI50 (SK-OV-3 ovarian): 13.7 µM | TGI (SK-OV-3 ovarian): 27.8 µM | GI50 (SN12C renal): 6.36 µM | TGI (SN12C renal): 19.9 µM | GI50 (SNB-19 CNS): 12 µM | TGI (SNB-19 CNS): 24.3 µM | GI50 (SNB-75 CNS): 8.41 µM | TGI (SNB-75 CNS): 22.7 µM | GI50 (SW-620 colon): 2.24 µM | TGI (SW-620 colon): 5.06 µM | GI50 (T-47D breast): 5.16 µM | TGI (T-47D breast): 19.6 µM | GI50 (TK-10 renal): 17.4 µM | TGI (TK-10 renal): 32 µM | GI50 (U251 CNS): 3.42 µM | TGI (U251 CNS): 13 µM | GI50 (UACC-257 melanoma): 11 µM | TGI (UACC-257 melanoma): 25 µM | GI50 (UACC-62 melanoma): 6.24 µM | TGI (UACC-62 melanoma): 19.4 µM | GI50 (UO-31 renal): 6.41 µM | TGI (UO-31 renal): 19.9 µM
